US20140357487A1, “PLANTS HAVING INCREASED TOLERANCE TO HERBICIDES” (BASF SE, priority 2011, published 2014)

Experiments:
Format in all cases: in vivo, Zea mays
[1] = system: transgenic corn plants, Arabidopsis Q293S, event SDM-71864; experiment: Greenhouse testing of transgenic corn plants, Arabidopsis Q293S; settings: corn SDM-71864, 5 days after herbicide treatment, average of 8 T1
Source text: (§1) Various methods for the production of stably transformed plants are well known in the art. Coumarone-derivative herbicide tolerant soybean (Glycine max) or corn (Zea mays) plants can be produced by a method described by Olhoft et al. (US patent 2009/0049567). Briefly, HPPD or HST encoding polynucleotides are cloned into a binary vector using standard cloning techniques as described by Sambrook et al. (Molecular cloning (2001) Cold Spring Harbor Laboratory Press). The final vector construct contains an HPPD or HST encoding sequence flanked by a promoter sequence (e.g. the ubiquitin promoter (PcUbi) sequence) and a terminator sequence (e.g. the nopaline synthase terminator (NOS) sequence) and a resistance marker gene cassette (e.g. AHAS) (FIG. 2). Optionally, the HPPD or HST gene can provide the means of selection. Agrobacterium-mediated transformation is used to introduce the DNA into soybean's axillary meristem cells at the primary node of seedling explants. After inoculation and co-cultivation with Agrobacteria, the explants are transferred to shoot induction medium without selection for one week. The explants are subsequently transferred to shoot induction medium with 1-3 μM imazapyr (Arsenal) for 3 weeks to select for transformed cells. Explants with healthy callus/shoot pads at the primary node are then transferred to shoot elongation medium containing 1-3 μM imazapyr until a shoot elongates or the explant dies. After regeneration, transformants are transplanted to soil in small pots, placed in growth chambers (16 hr day/8 hr night; 25° C. day/23° C. night; 65% relative humidity; 130-150 mE m−2 s−1) and subsequently tested for the presence of the T-DNA via Taqman analysis. After a few weeks, healthy, transgenic positive, single copy events are transplanted to larger pots and allowed to grow in the growth chamber. Transformation of corn plants is done by a method described by McElver and Singh (WO 2008/124495). Plant transformation vector constructs containing HPPD or HST sequences are introduced into maize immature embryos via Agrobacterium-mediated transformation. Transformed cells are selected in selection media supplemented with 0.5-1.5 μM imazethapyr for 3-4 weeks. Transgenic plantlets are regenerated on plant regeneration media and rooted afterwards. Transgenic plantlets are subjected to TaqMan analysis for the presence of the transgene before being transplanted to potting mixture and grown to maturity in greenhouse. Arabidopsis thaliana is transformed with HPPD or HST sequences by floral dip method as described by McElver and Singh (WO 2008/124495). Transgenic Arabidopsis plants are subjected to Tag Man analysis for analysis of the number of integration loci. Transformation of Oryza sativa (rice) are done by protoplast transformation as described by Peng et al. (U.S. Pat. No. 6,653,529)
(§2) Transgenic plants expressing heterologous HPPD or HST enzymes are tested for tolerance against coumarone-derivative herbicides in greenhouse experiments.
(§3) For post emergence treatment, the test plants are first grown to a height of 3 to 15 cm, depending on the plant habit, and only then treated with the herbicides. For this purpose, the test plants are either sown directly and grown in the same containers, or they are first grown separately and transplanted into the test containers a few days prior to treatment.
Depending on the species, the plants are kept at 10-25° C. or 20-35° C. […] During this time, the plants are tended and their response to the individual treatments is evaluated. […] Tolerance to coumarone-derivative herbicides can also be assessed in Arabidopsis. In this case transgenic Arabidopsis thaliana plants are assayed for improved tolerance to coumarone-derivative herbicides in 48-well plates. Seeds are surface sterilized by stirring for 5 min in ethanol+water (70+30 by volume), rinsing one time with ethanol+water (70+30 by volume) and two times with a sterile, deionized water. […]

[2] = system: corn plants, wild type (transgene none); experiment: Greenhouse testing of corn plants, wild type; settings: 5 days after herbicide treatment
Source text: as §1, §2, §3
(§4) Depending on the species, the plants are kept at 10-25° C. or 20-35° C. The test period extends over 3 weeks. During this time, the plants are tended and their response to the individual treatments is evaluated. […] Tolerance to coumarone-derivative herbicides can also be assessed in Arabidopsis. In this case transgenic Arabidopsis thaliana plants are assayed for improved tolerance to coumarone-derivative herbicides in 48-well plates. Seeds are surface sterilized by stirring for 5 min in ethanol+water (70+30 by volume), rinsing one time with ethanol+water (70+30 by volume) and two times with a sterile, deionized water. […]

[3] = system: transgenic corn plants, Arabidopsis I393L L385V, event SDM-71855; experiment: Greenhouse testing of transgenic corn plants, Arabidopsis I393L L385V; settings: corn SDM-71855, 5 days after herbicide treatment, average of 8 T1
Source text: as §1, §2, §3, §4

[4] = system: transgenic corn plants, Arabidopsis HPPD, event SDM-71884; experiment: Greenhouse testing of transgenic corn plants, Arabidopsis HPPD; settings: corn SDM-71884, 5 days after herbicide treatment, average of 8 T1
Source text: as §1, §2, §3, §4

Cc1c(C(=O)c2cnn(C)c2O)ccc(S(C)(=O)=O)c1C1=NOCC1 [Topramezone, reference compound]
Injury evaluation, scale of 1-100, bleaching phenotype ([1]; 6.25 g/ha): 1
Injury evaluation, scale of 1-100, bleaching phenotype ([1]; 25 g/ha): 4
Injury evaluation, scale of 1-100, bleaching phenotype ([1]; 100 g/ha): 6
Injury evaluation, scale of 1-100, bleaching phenotype ([2]; 6.25 g/ha): 0
Injury evaluation, scale of 1-100, bleaching phenotype ([2]; 25 g/ha): 0
Injury evaluation, scale of 1-100, bleaching phenotype ([2]; 100 g/ha): 0
Injury evaluation, scale of 1-100, bleaching phenotype ([3]; 6.25 g/ha): 0
Injury evaluation, scale of 1-100, bleaching phenotype ([3]; 25 g/ha): 0
Injury evaluation, scale of 1-100, bleaching phenotype ([3]; 100 g/ha): 4
Injury evaluation, scale of 1-100, bleaching phenotype ([4]; 6.25 g/ha): 0
Injury evaluation, scale of 1-100, bleaching phenotype ([4]; 25 g/ha): 0
Injury evaluation, scale of 1-100, bleaching phenotype ([4]; 100 g/ha): 1

CC1(C)c2cccnc2C(O)=C(c2ccc(Cl)nc2Cl)S1(=O)=O [Inhibitor 2, 7-(2,6-dichloro-3-pyridyl)-5,5-dimethyl-6,6-dioxo-thiopyrano[4,3-b]pyridin-8-ol]
Injury evaluation, scale of 1-100, bleaching phenotype ([1]; 2.5 g/ha): 4
Injury evaluation, scale of 1-100, bleaching phenotype ([1]; 10 g/ha): 17
Injury evaluation, scale of 1-100, bleaching phenotype ([1]; 40 g/ha): 15
Injury evaluation, scale of 1-100, bleaching phenotype ([2]; 2.5 g/ha): 20
Injury evaluation, scale of 1-100, bleaching phenotype ([2]; 10 g/ha): 45
Injury evaluation, scale of 1-100, bleaching phenotype ([2]; 40 g/ha): 33
Injury evaluation, scale of 1-100, bleaching phenotype ([3]; 2.5 g/ha): 7
Injury evaluation, scale of 1-100, bleaching phenotype ([3]; 10 g/ha): 7
Injury evaluation, scale of 1-100, bleaching phenotype ([3]; 40 g/ha): 25
Injury evaluation, scale of 1-100, bleaching phenotype ([4]; 2.5 g/ha): 4
Injury evaluation, scale of 1-100, bleaching phenotype ([4]; 10 g/ha): 13
Injury evaluation, scale of 1-100, bleaching phenotype ([4]; 40 g/ha): 4
